Results from US6589938B2, “Use of angiotensin I derivatives as an agent for the treatment and prevention of infarction-related cardiac injuries and disorders” (National University of Singapore, priority 2001, dated 2003).

Test system: experimentally-infarcted rats
Experiment: Infarct scar area and transmurality after coronary occlusion and reperfusion in rats
Format: in vivo, Sprague Dawley rats
Conditions: for Transmurality, Treated: infarct scar area divided by infarct area; for Transmurality, Treated / Infarct Scar Area, Treated: mean ± SEM, 7 rats; for Infarct Scar Area, Treated: left ventricle
Experimental: The experimental protocol for induction of cardiac infarction by coronary occlusion and reperfusion in rats was carried out as described by Oh et al. (10). Briefly, each rat was anaesthetized with 7% w/v chloral hydrate (0.4 g/kg, i.p.). Each anaesthetised animal was intubated and ventilated with a rodent ventilator. Under a dissecting microscope, a left thoracotomy was performed in the fourth intercostal space, and the pericardium open. The left coronary artery was encircled with a curved needle and a silk suture. The left coronary artery was ligated for 45 minutes, followed by reperfusion. In sham-operated animals, the left coronary artery was not ligated. The chest was closed in layers and the pneumothorax evacuated.
Following the surgery, each animal was placed in a cage. The animals had access to water and rat chow ad libitum. The animals were randomly divided into the control group and treatment group. Each group consisted of 7 animals. The treatment group was orally administered 381 nmoles/kg/day of des-Asp-angiotensin I (dissolved in 1 ml water) for 14 days. The control group was similarly administered an equivalent volume of water. The experiment was repeated with the following doses of des-Asp-angiotensin I: 762, 1524, and […] nmoles/kg/day.
On the fourteenth day following surgery, animals were anaesthetised as before. Rats were ventilated as before and the thorax was opened. A polyethylene catheter (PE 200) was introduced into the left ventricle (via the left atrial appendage) and another into the descending aorta retrogradely. The heart was arrested with 2 ml injection of saturated KCl solution into the right atrium. After aortic perfusion with heparinized saline (10,000 units/L) for 3 minutes to wash out the blood, the myocardium was perfused retrogradely from the aorta with 4% phosphate-buffered paraformaldehyde at a constant pressure of 60 mm Hg for 20 minutes. The right atrium and pulmonary artery were opened to decompress the right ventricle during fixation. The left ventricle intracavity pressure was maintained at 10 mm Hg by use of the cathether introduced via the left atrial appendage.
After hardening, the heart was excised and postfixed in 4% paraformaldehyde for 24 hours. Following postfixing, the atria and adhensions were carefully dissected away and the right and left ventricles were separated, the interventricular septum being included with the left ventricle. The left ventricle was processed for paraffin embedment. Transverse serial sections of 40 μm thick were cut from the apex of the ventricle to its base. Every section at 1 mm intervals was mounted and stained with Milligan's trichrome. The infracted tissue (infarct scar) was stained blue. Two sections, taken at 5 and 6 mm, respectively, from the apex of each ventricle were used for morphometric determination of the infarct scar area and transmurality. The morphometry system consisted of a BX40 light microscope (Olympus, Japan) fitted with a KYF55B colour video camera (JVC, Japan) and a Pentium 166 MHz/MKX microcomputer (Datamini, Singapore) installed with an image Pro Plus 3.0 System (Media Cybernetics, USA) for Windows 95™. The infarct scar area, infarct area (which measured the scar and the surrounding surviving ventricular tissue) were determined in mm2. Transmurality is equal to the infarct scar area divided by infarct area.
The results of the study are summarized in Table 2 Data were expressed as mean±SEM. Significant differences were determined by one way ANOVA and post hoc Newman Kleuf test. The accepted level of significance was p<0.05. […] The effect was dose dependent and significant anti-infarction action was brought about by an oral dose of 1524 nmoles/kg/day.

[1] = 381 nmole/kg/day orally for 14 days
[2] = 762 nmole/kg/day orally for 14 days
[3] = 1524 nmole/kg/day orally for 14 days, * p < 0.05 vs Control
[4] = 3096 nmole/kg/day orally for 14 days, * p < 0.05 vs Control

“Des-Aspartate angiotensin I [des-Asp-angiotensin I]” was tested, and the “Transmurality, Treated” value [1] was 32.93 ± 1.94%, the “Infarct Scar Area, Treated” value [1] was 5.85 ± 0.25 mm^2 and the “Transmurality, Treated” value [2] was 33.70 ± 3.40%. For the same substance, the “Infarct Scar Area, Treated” value [2] was 5.60 ± 0.30 mm^2, the “Transmurality, Treated” value [3] was 24.67 ± 2.37* % and the “Infarct Scar Area, Treated” value [3] was 5.11 ± 0.54* mm^2. The “Transmurality, Treated” value [4] was 31.26 ± 1.53* %, the “Infarct Scar Area, Treated” value [4] was 5.86 ± 0.20* mm^2 and the “attenuating the infarct size area and transmurality” value (experimentally-induced myocardial infarcted rats, oral, 14 days) was “effective agent”. For the same substance, the “oral dose that brought about significant anti-infarction action” value (oral, 14 days, p<0.05, one way ANOVA) was 1524 nmol/kg/day.
